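Dose response: 5 concentrations. Exposure: 48 h. Format: 96-well plates. Endpoint: linear interpolation; highest concentration if not reached. GI50 marks 50% less growth. TGI: concentration producing complete growth inhibition.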
Key:
Assay in all cases: NCI anticancer screen, dose series, 48 h
[1] = tested on: HL-60(TB) leukemia
[2] = tested on: 786-0 renal
[3] = tested on: T-47D breast
[4] = tested on: PC-3 prostate
[5] = tested on: OVCAR-3 ovarian
[6] = tested on: UO-31 renal
[7] = tested on: RXF 393 renal
[8] = tested on: RPMI-8226 leukemia
[9] = tested on: SF-268 CNS
[10] = tested on: K-562 leukemia
[11] = tested on: HCT-116 colon
[12] = tested on: NCI-H23 lung
[13] = tested on: EKVX NSCLC
[14] = tested on: SR leukemia
[15] = tested on: SK-MEL-2 melanoma
[16] = tested on: NCI-H460 lung
[17] = tested on: UACC-257 melanoma
[18] = tested on: HCC-2998 colon
[19] = tested on: NCI/ADR-RES ovarian
[20] = tested on: MDA-MB-435
[21] = tested on: SK-MEL-28 melanoma
[22] = tested on: M14 melanoma
[23] = tested on: NCI-H226 lung
[24] = tested on: LOX IMVI melanoma
[25] = tested on: HT29 colon
[26] = tested on: SK-OV-3 ovarian
[27] = tested on: CCRF-CEM leukemia
[28] = tested on: TK-10 renal
[29] = tested on: MALME-3M melanoma
[30] = tested on: ACHN renal
[31] = tested on: OVCAR-4 ovarian
[32] = tested on: MOLT-4 leukemia
[33] = tested on: SF-539 CNS
[34] = tested on: SN12C renal
[35] = tested on: UACC-62 melanoma
[36] = tested on: NCI-H522 lung
[37] = tested on: SNB-75 CNS
[38] = tested on: HCT-15 colon
[39] = tested on: DU-145 prostate
[40] = tested on: OVCAR-5 ovarian
[41] = tested on: A498 renal
[42] = tested on: A549 NSCLC
[43] = tested on: OVCAR-8 ovarian
[44] = tested on: SNB-19 CNS
[45] = tested on: SK-MEL-5 melanoma
[46] = tested on: MDA-MB-231 breast
[47] = tested on: HOP-62 NSCLC
[48] = tested on: SF-295 CNS
[49] = tested on: CAKI-1 renal
[50] = tested on: MCF7 breast
[51] = tested on: U251 CNS
[52] = tested on: SW-620 colon
[53] = tested on: BT-549 breast
[54] = tested on: KM12 colon
[55] = tested on: COLO 205 colon
[56] = tested on: HOP-92 NSCLC
[57] = tested on: HS 578T breast
[58] = tested on: IGROV1 ovarian

O=C(NNc1nc2cc(F)ccc2n2c(CN3CC4(COC4)C3)ccc12)c1cnccn1 showed a GI50 [1] of 0.469 µM, a TGI [1] of 12.9 µM and a GI50 [2] of 0.458 µM. For the same molecule, the TGI [2] was 11.2 µM, the GI50 [3] was 0.558 µM and the TGI [3] was 22.3 µM. For the same molecule, the GI50 [4] was 0.719 µM, the TGI [4] was 31.4 µM and the GI50 [5] was 0.65 µM. It also gave a TGI [5] of 22.7 µM, a GI50 [6] of 0.114 µM and a TGI [6] of 5.71 µM. The GI50 [7] was 2.29 µM, the TGI [7] was 13.7 µM and the GI50 [8] was 0.689 µM. It also gave a TGI [8] of 28.1 µM, a GI50 [9] of 0.616 µM and a TGI [9] greater than 100 µM. For the same molecule, the GI50 [10] was 0.502 µM, the TGI [10] was greater than 100 µM and the GI50 [11] was 0.373 µM. The TGI [11] was 13.3 µM, the GI50 [12] was 1.78 µM and the TGI [12] was 41.8 µM. For the same molecule, the GI50 [13] was 0.438 µM, the TGI [13] was 30 µM and the GI50 [14] was 0.409 µM. It also gave a TGI [14] greater than 100 µM, a GI50 [15] of 2.19 µM and a TGI [15] of 14.7 µM. For the same molecule, the GI50 [16] was 0.259 µM, the TGI [16] was 11.6 µM and the GI50 [17] was 1.72 µM. The TGI [17] was 8.07 µM, the GI50 [18] was 0.709 µM and the TGI [18] was greater than 45.9 µM. It also gave a GI50 [19] of 0.386 µM, a TGI [19] of 9.97 µM and a GI50 [20] of 1.3 µM. It also gave a TGI [20] greater than 47.5 µM, a GI50 [21] of 0.861 µM and a TGI [21] of 25.1 µM. The GI50 [22] was 0.451 µM, the TGI [22] was 3.53 µM and the GI50 [23] was 1.05 µM. For the same molecule, the TGI [23] was 10.8 µM, the GI50 [24] was 0.557 µM and the TGI [24] was 9.72 µM. For the same molecule, the GI50 [25] was 0.499 µM, the TGI [25] was 16.8 µM and the GI50 [26] was 0.548 µM. It also gave a TGI [26] of 9.88 µM, a GI50 [27] of 0.281 µM and a TGI [27] greater than 70.4 µM. For the same molecule, the GI50 [28] was 0.263 µM, the TGI [28] was 23.2 µM and the GI50 [29] was 1.6 µM. For the same molecule, the TGI [29] was 11.9 µM, the GI50 [30] was 0.233 µM and the TGI [30] was 11.7 µM. It also gave a GI50 [31] of 0.49 µM, a TGI [31] greater than 39.1 µM and a GI50 [32] of 0.443 µM. For the same molecule, the TGI [32] was greater than 75.6 µM, the GI50 [33] was 0.675 µM and the TGI [33] was 8.97 µM. For the same molecule, the GI50 [34] was 0.952 µM, the TGI [34] was 33.5 µM and the GI50 [35] was 0.406 µM. For the same molecule, the TGI [35] was 1.96 µM, the GI50 [36] was 0.497 µM and the TGI [36] was 5.5 µM. The GI50 [37] was 0.756 µM, the TGI [37] was 11 µM and the GI50 [38] was 0.188 µM. For the same molecule, the TGI [38] was 26.3 µM, the GI50 [39] was 1.18 µM and the TGI [39] was greater than 82.4 µM. For the same molecule, the GI50 [40] was 1.16 µM, the TGI [40] was 34.3 µM and the GI50 [41] was 16.7 µM. It also gave a TGI [41] of 34 µM, a GI50 [42] of 0.611 µM and a TGI [42] of 32.7 µM. It also gave a GI50 [43] of 0.404 µM, a TGI [43] of 16.3 µM and a GI50 [44] of 0.854 µM. For the same molecule, the TGI [44] was greater than 100 µM, the GI50 [45] was 0.673 µM and the TGI [45] was 5.33 µM. It also gave a GI50 [46] of 0.696 µM, a TGI [46] of 19.5 µM and a GI50 [47] of 0.442 µM. For the same molecule, the TGI [47] was 22.1 µM, the GI50 [48] was 0.319 µM and the TGI [48] was 12.2 µM. For the same molecule, the GI50 [49] was 0.33 µM, the TGI [49] was 13.2 µM and the GI50 [50] was 0.596 µM. For the same molecule, the TGI [50] was 9.81 µM, the GI50 [51] was 0.395 µM and the TGI [51] was greater than 53.1 µM. It also gave a GI50 [52] of 0.62 µM, a TGI [52] greater than 56.3 µM and a GI50 [53] of 0.907 µM. The TGI [53] was 9.22 µM, the GI50 [54] was 0.579 µM and the TGI [54] was greater than 64.2 µM. The GI50 [55] was 0.401 µM, the TGI [55] was 16.3 µM and the GI50 [56] was 0.983 µM. The TGI [56] was 23.3 µM, the GI50 [57] was 3.04 µM and the TGI [57] was greater than 95.2 µM. For the same molecule, the GI50 [58] was 0.717 µM and the TGI [58] was 18.9 µM.

CCCn1cnc2c(c1=N)C(c1ccc(OC)cc1)c1sc3c(CC)cccc3c1O2 (stereo unspecified) showed a GI50 [1] of 0.279 µM, a TGI [1] of 1.03 µM and a GI50 [2] of 0.534 µM. The TGI [2] was 12.8 µM, the GI50 [3] was 0.518 µM and the TGI [3] was greater than 49.2 µM. The GI50 [4] was 0.551 µM, the TGI [4] was 16.9 µM and the GI50 [5] was 0.378 µM. The TGI [5] was 2.97 µM, the GI50 [6] was 0.714 µM and the TGI [6] was 29.9 µM. It also gave a GI50 [7] of 0.272 µM, a TGI [7] of 0.883 µM and a GI50 [8] of 0.375 µM. For the same molecule, the TGI [8] was 2.56 µM, the GI50 [9] was 0.702 µM and the TGI [9] was 26.1 µM. It also gave a GI50 [10] of 0.338 µM, a TGI [10] greater than 31.6 µM and a GI50 [11] of 0.382 µM. For the same molecule, the TGI [11] was 4.77 µM, the GI50 [12] was 1.27 µM and the TGI [12] was 18.1 µM. The GI50 [13] was 0.941 µM, the TGI [13] was 20 µM and the GI50 [14] was 0.319 µM. The TGI [14] was 3.23 µM, the GI50 [15] was 0.608 µM and the TGI [15] was 14.7 µM. The GI50 [16] was 0.378 µM, the TGI [16] was 4.45 µM and the GI50 [17] was 15 µM. The TGI [17] was greater than 100 µM, the GI50 [18] was 1.3 µM and the TGI [18] was 6.6 µM. The GI50 [19] was 0.389 µM, the TGI [19] was 10 µM and the GI50 [20] was 0.196 µM. The TGI [20] was 0.479 µM, the GI50 [21] was 2.14 µM and the TGI [21] was 36.7 µM. It also gave a GI50 [22] of 0.389 µM, a TGI [22] of 6.18 µM and a GI50 [23] of 0.964 µM. It also gave a TGI [23] of 11.2 µM, a GI50 [24] of 0.685 µM and a TGI [24] of 5.43 µM. The GI50 [25] was 0.512 µM, the TGI [25] was 9.09 µM and the GI50 [26] was 0.818 µM. It also gave a TGI [26] of 26.9 µM, a GI50 [27] of 0.421 µM and a GI50 [28] of 5.13 µM. It also gave a TGI [28] of 32.4 µM, a GI50 [29] of 0.726 µM and a TGI [29] of 21.7 µM. It also gave a GI50 [30] of 0.725 µM, a TGI [30] of 17.7 µM and a GI50 [31] of 1.35 µM. It also gave a TGI [31] of 23.5 µM, a GI50 [32] of 0.505 µM and a TGI [32] of 5.78 µM. It also gave a GI50 [33] of 0.334 µM, a TGI [33] of 1.4 µM and a GI50 [34] of 0.867 µM. The TGI [34] was 7.6 µM, the GI50 [35] was 0.422 µM and the TGI [35] was 19.1 µM. The GI50 [36] was 0.346 µM, the TGI [36] was 4.94 µM and the GI50 [37] was 0.22 µM. It also gave a TGI [37] of 1.09 µM, a GI50 [38] of 0.441 µM and a TGI [38] of 6.21 µM. It also gave a GI50 [39] of 0.665 µM, a TGI [39] of 13.7 µM and a GI50 [40] of 2.59 µM. The TGI [40] was 17.9 µM, the GI50 [41] was 0.334 µM and the TGI [41] was 1.41 µM. For the same molecule, the GI50 [42] was 0.827 µM, the TGI [42] was 20.9 µM and the GI50 [43] was 1.01 µM. It also gave a TGI [43] of 15.8 µM, a GI50 [44] of 0.478 µM and a TGI [44] of 14.6 µM. The GI50 [45] was 0.578 µM, the TGI [45] was 7.28 µM and the GI50 [46] was 1.36 µM. For the same molecule, the TGI [46] was 13 µM, the GI50 [47] was 0.553 µM and the TGI [47] was 14.8 µM. It also gave a GI50 [48] of 0.392 µM, a TGI [48] of 7.24 µM and a GI50 [49] of 0.476 µM. It also gave a TGI [49] of 20.6 µM, a GI50 [50] of 0.345 µM and a TGI [50] of 11.6 µM. For the same molecule, the GI50 [51] was 0.438 µM, the TGI [51] was 12.5 µM and the GI50 [52] was 0.515 µM. For the same molecule, the TGI [52] was 14.8 µM, the GI50 [53] was 0.691 µM and the TGI [53] was 16 µM. It also gave a GI50 [54] of 0.445 µM, a TGI [54] of 24.9 µM and a GI50 [55] of 0.844 µM. The TGI [55] was 8.27 µM, the GI50 [56] was 1.19 µM and the TGI [56] was 11.2 µM. The GI50 [57] was 0.384 µM, the TGI [57] was 5.76 µM and the GI50 [58] was 0.612 µM. For the same molecule, the TGI [58] was 29.4 µM.

Reference: PubChem BioAssay (NCI)
